From paper PMC10900215 (JACS Au, 2024)

Columns and labels:
METTL3-14 [1] = target: T1, METTL3-14 (Homo sapiens, UniProt Q86U44); experiment: Cellular degradation assay (Western blot), METTL3 and/or METTL14 (METTL3–14) in MOLM-13; type: cell-based; parameters: METTL3–14 degradation up to 70% of the endogenous level; endogenous in cells; host or cells: MOLM-13, KASUMI-1, THP-1, NOMO-1; conditions: for concentration at which the highest degradation was observed: MOLM-13, five concentrations; for METTL3–14 levels in the presence of UZH2: MOLM-13, 2 μM PROTAC + 10 μM UZH2; for METTL3–14 degradation in the presence of lenalidomide: MOLM-13, 2 μM PROTAC + 10 μM lenalidomide; for degradation of METTL3 and/or METTL14: MOLM-13, 2 μM, 24 h, Western blot
T1 sequence (Q86U44 2-580 limits assumed): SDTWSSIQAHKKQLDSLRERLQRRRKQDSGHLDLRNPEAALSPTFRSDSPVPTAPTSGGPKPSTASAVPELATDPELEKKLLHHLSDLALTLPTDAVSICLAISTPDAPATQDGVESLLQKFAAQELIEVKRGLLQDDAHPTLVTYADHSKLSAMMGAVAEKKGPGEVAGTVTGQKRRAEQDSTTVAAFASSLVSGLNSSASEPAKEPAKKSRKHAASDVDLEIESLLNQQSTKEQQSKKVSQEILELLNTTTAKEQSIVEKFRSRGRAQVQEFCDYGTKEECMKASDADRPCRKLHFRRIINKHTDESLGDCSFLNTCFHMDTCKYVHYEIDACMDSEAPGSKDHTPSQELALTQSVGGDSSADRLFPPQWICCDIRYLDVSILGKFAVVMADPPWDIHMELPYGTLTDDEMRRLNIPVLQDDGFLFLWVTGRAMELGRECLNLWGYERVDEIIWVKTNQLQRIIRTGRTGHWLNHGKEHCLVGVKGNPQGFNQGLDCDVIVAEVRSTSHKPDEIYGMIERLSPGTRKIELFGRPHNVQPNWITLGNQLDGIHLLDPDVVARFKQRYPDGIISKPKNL
T1 sequence (Q9HCE5 whole entry partner): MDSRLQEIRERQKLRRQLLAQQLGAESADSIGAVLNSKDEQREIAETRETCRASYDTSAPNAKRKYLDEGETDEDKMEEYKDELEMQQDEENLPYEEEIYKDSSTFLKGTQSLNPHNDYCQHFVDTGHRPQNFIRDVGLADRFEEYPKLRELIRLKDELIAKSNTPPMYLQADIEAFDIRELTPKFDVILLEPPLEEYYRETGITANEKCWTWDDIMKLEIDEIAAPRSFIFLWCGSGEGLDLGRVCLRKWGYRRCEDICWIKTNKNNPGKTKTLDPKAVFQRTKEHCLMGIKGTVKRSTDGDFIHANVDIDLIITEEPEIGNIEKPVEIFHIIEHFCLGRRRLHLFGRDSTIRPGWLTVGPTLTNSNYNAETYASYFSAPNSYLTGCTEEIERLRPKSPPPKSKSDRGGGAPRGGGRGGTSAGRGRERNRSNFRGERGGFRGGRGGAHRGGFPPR
Description: MOLM-13, NOMO-1, THP-1, Kasumi-1, PC3, and DU145 cell lines were obtained from DSMZ-German Collection of Microorganisms and Cell Cultures GmbH. […] All cell lines were tested negative for mycoplasma contamination (PCR-based assay by Microsynth, Switzerland).
METTL3 (and METTL14) protein degradation was monitored by Western blot. Cells were treated with the indicated concentration of PROTACs or DMSO control (0.1% (v/v)) for 24h, 37 °C with 5% CO2. […] After SDS-PAGE, proteins were transferred to a nitrocellulose membrane, blocked (with 5% milk, 0.5% BSA in TBST buffer), and incubated overnight with primary antibodies. […] Densitometry was performed in Image Studio Lite software and analyzed in GraphPad Prism 9.

[2] = target: T2, ternary complex CRBN/PROTAC/METTL3–14 (Homo sapiens, UniProt Q86U44+Q96SW2); experiment: FRET-based ternary complex formation assay (TCFA); type: binding; conditions: for TCFA amplitude (mean ± SEM): Hook curve amplitude, fraction of the maximum of compound 16; for ECmax (nM) ± SD: PROTAC concentration at the maximum of the signal in the TCFA; for ECmax: TCFA, peak of the Hook curve
T2 construct: methyltransferase domains (MTD) of METTL3 (residues 354–580); His6 (N, cleaved yes); made in house; host or cells: METTL3-MTD/METTL14-MTD: baculovirus/Sf9; CRBN-TBD: E. coli Rosetta (DE3), co-expressed with BirA
T2 sequence (Q86U44 354-580): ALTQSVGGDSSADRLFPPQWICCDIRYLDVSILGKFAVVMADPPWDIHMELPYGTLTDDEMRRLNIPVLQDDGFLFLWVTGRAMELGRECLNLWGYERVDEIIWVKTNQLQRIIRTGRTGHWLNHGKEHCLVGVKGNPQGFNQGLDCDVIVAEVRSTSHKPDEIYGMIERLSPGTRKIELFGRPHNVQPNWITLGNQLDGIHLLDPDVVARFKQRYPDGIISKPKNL
T2 sequence (Q9HCE5 107-395 partner limits assumed): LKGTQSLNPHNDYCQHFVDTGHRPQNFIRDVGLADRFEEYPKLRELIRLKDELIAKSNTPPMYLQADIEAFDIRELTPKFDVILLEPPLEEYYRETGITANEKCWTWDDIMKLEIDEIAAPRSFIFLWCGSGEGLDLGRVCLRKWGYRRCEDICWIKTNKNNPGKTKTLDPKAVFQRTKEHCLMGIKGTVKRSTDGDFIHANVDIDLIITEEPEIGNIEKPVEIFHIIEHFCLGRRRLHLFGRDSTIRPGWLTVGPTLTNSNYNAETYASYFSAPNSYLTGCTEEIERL
T2 sequence (Q96SW2 318-442): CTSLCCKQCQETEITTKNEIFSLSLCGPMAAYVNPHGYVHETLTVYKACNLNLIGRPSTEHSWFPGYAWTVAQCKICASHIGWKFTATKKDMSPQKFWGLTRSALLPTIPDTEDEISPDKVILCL
Procedure, shortened: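 HTRF/TR-FRET measurement of PROTAC-induced complex between GST-tagged METTL3–14 and biotinylated CRBN^TBD-Avi (10 nM final) with 0.8 nM Eu^3+ anti-GST antibody, in 50 mM HEPES pH 7.5, 150 mM NaCl, 0.1% BSA, 100 mM KF. Emission ratio used; ECmax and Hook-curve amplitude taken from Gaussian fit or highest-signal data point.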

METTL3-14 [3] = target: T1, METTL3-14; experiment: Cellular degradation assay (Western blot) in NOMO-1; type: cell-based; parameters: METTL3–14 degradation up to 70% of the endogenous level; endogenous in cells; host or cells: MOLM-13, KASUMI-1, THP-1, NOMO-1; conditions: NOMO-1, 2 μM, 24 h
Description: (§1) MOLM-13, NOMO-1, THP-1, Kasumi-1, PC3, and DU145 cell lines were obtained from DSMZ-German Collection of Microorganisms and Cell Cultures GmbH. Cells were cultured in RPMI 1640 medium (11875093, Thermo Fisher Scientific) containing 10% FBS (16140071, Thermo Fisher Scientific) and 1% penicillin-streptomycin (15140122, Thermo Fisher Scientific) in 5% CO2 at 37 °C in a humidified incubator, with maintained cell densities at 0.5–1 × 10^6 cells/mL. All cell lines were tested negative for mycoplasma contamination (PCR-based assay by Microsynth, Switzerland).
(§2) METTL3 (and METTL14) protein degradation was monitored by Western blot. Cells were treated with the indicated concentration of PROTACs or DMSO control (0.1% (v/v)) for 24h, 37 °C with 5% CO2. Samples were then collected and lysed with RIPA buffer with added protease inhibitors (11697498001, Roche). After SDS-PAGE, proteins were transferred to a nitrocellulose membrane, blocked (with 5% milk, 0.5% BSA in TBST buffer), and incubated overnight with primary antibodies. The following antibodies were used: GAPDH (no. 2118, Cell Signaling, 1:4000), β-actin (ab8226, Abcam, 1:2000), METTL3 (ab195352, Abcam, 1:1000), and METTL14 (ab220031, Abcam, 1:1000). Membranes were scanned using an LI-COR Odyssey DLx imager after incubation with appropriate secondary antibodies (antimouse IgG IRDye 680RD (926–68072, LI-COR, 1:10000) and goat anti-Rabbit IgG IRDye 800CW (926–32211, LI-COR, 1:10000)). Densitometry was performed in Image Studio Lite software and analyzed in GraphPad Prism 9.

METTL3 [4] = target: T3, METTL3 (Homo sapiens, UniProt Q86U44); experiment: Cellular degradation assay (Western blot) in DU145; type: cell-based; conditions: DU145, 2 μM, 24 h
T3 construct: METTL3–14 degradation up to 70% of the endogenous level; endogenous in cells; host or cells: MOLM-13, PC3, DU145
T3 sequence (Q86U44 2-580 limits assumed): as the sequence (Q86U44 2-580 limits assumed) above
T3 sequence (Q9HCE5 whole entry partner): as the sequence (Q9HCE5 whole entry partner) above
Description: as §1, §2

METTL3 [5] = target: T3, METTL3; experiment: Cellular degradation assay (Western blot) in PC3; type: cell-based; conditions: PC3, 2 μM, 24 h
Description: as §1
as §2, with “Membranes were scanned using an LI-COR Odyssey DLx imager after incubation with appropriate secondary antibodies (antimouse IgG IRDye 680RD (926–68072, LI-COR, 1:10000) and goat anti-Rabbit IgG IRDye 800CW (926–32211, LI-COR, 1:10000)).” left out

Structure (SMILES): CC1(C)CCN(Cc2cc(F)c(N3CC(=O)NC4(CCN(c5cc(NCc6cccc(CNC(=O)CCCNc7cccc8c7C(=O)N(C7CCC(=O)NC7=O)C8=O)c6)ncn5)CC4)C3)cc2F)CC1 (centres unmarked) [Compound 14]
- concentration at which the highest degradation was observed (METTL3-14 [1]): 1 µM
- TCFA amplitude (mean ± SEM) [2]: 1.2 ± 0.0
- ECmax (nM) ± SD [2]: 250 ± 0 nM
- ECmax [2]: submicromolar
- degradation levels of METTL3 and METTL14 (METTL3-14 [3]): comparable to those in MOLM-13
- effect on METTL3 level (METTL3 [4]): only a minor effect

Structure (SMILES): CC1(C)CCN(Cc2cc(F)c(N3CC(=O)NC4(CCN(c5cc(NCc6cccc(CNC(=O)CCCCCCCCCCn7cc(CNc8cccc9c8C(=O)N(C8CCC(=O)NC8=O)C9=O)nn7)c6)ncn5)CC4)C3)cc2F)CC1 (centres unmarked) [Compound 20]
- METTL3–14 levels in the presence of UZH2 (METTL3-14 [1]): elevated levels of METTL3–14
- METTL3–14 degradation in the presence of lenalidomide (METTL3-14 [1]): did not observe any degradation
- degradation of METTL3 and/or METTL14 (METTL3-14 [1]): ≥ 50%
- TCFA amplitude (mean ± SEM) [2]: 0.6 ± 0.0
- ECmax (nM) ± SD [2]: 860 ± 240 nM
- ECmax [2]: submicromolar
- reduction of METTL3 (METTL3 [5]): 48%
- degradation levels of METTL3 and METTL14 (METTL3-14 [3]): comparable to those in MOLM-13
- effect on METTL3 level (METTL3 [4]): only a minor effect

Structure (SMILES): CC1(C)CCN(Cc2cc(F)c(N3CC(=O)NC4(CCN(c5cc(NCC6CCN(C(=O)CCCNc7cccc8c7C(=O)N(C7CCC(=O)NC7=O)C8=O)CC6)ncn5)CC4)C3)cc2F)CC1 (centres unmarked) [Compound 22]
- TCFA amplitude (mean ± SEM) [2]: 1.1 ± 0.1
- ECmax (nM) ± SD [2]: 190 ± 90 nM
- reduction of METTL3 (METTL3 [5]): 64%
- degradation levels of METTL3 and METTL14 (METTL3-14 [3]): comparable to those in MOLM-13
- effect on METTL3 level (METTL3 [4]): only a minor effect

Structure (SMILES): CC1(C)CCN(Cc2cc(F)c(N3CC(=O)NC4(CCN(c5cc(NCC6CCN(C(=O)CCCCCNc7cccc8c7C(=O)N(C7CCC(=O)NC7=O)C8=O)CC6)ncn5)CC4)C3)cc2F)CC1 (centres unmarked) [Compound 24]
- METTL3–14 levels in the presence of UZH2 (METTL3-14 [1]): elevated levels of METTL3–14
- METTL3–14 degradation in the presence of lenalidomide (METTL3-14 [1]): did not observe any degradation
- degradation of METTL3 and/or METTL14 (METTL3-14 [1]): ≥ 50%
- TCFA amplitude (mean ± SEM) [2]: 1.2 ± 0.0
- ECmax (nM) ± SD [2]: 470 ± 80 nM
- ECmax [2]: submicromolar
- degradation levels of METTL3 and METTL14 (METTL3-14 [3]): comparable to those in MOLM-13
- effect on METTL3 level (METTL3 [4]): only a minor effect

Structure (SMILES): CC1(C)CCN(Cc2cc(F)c(N3CC(=O)NC4(CCN(c5cc(NCCN6CCN(C(=O)CCCCCNc7cccc8c7C(=O)N(C7CCC(=O)NC7=O)C8=O)CC6)ncn5)CC4)C3)cc2F)CC1 (centres unmarked) [Compound 30]
- highest degradation in concentration dependence (METTL3-14 [1]; MOLM-13, 0.1 μM): up to 60%
- concentration at which the highest degradation was observed (METTL3-14 [1]): 0.1 µM
- TCFA amplitude (mean ± SEM) [2]: 1.0 ± 0.1
- ECmax (nM) ± SD [2]: 70 ± 30 nM
- ECmax [2]: submicromolar
- degradation levels of METTL3 and METTL14 (METTL3-14 [3]): comparable to those in MOLM-13
- effect on METTL3 level (METTL3 [4]): only a minor effect
